Reference: patent US20230023009A1, “HETEROCYCLIC COMPOUNDS AND METHODS OF USE THEREOF” (SPARCBIO LLC, priority 2020, published 2023)
Read-outs that look alike come from different tables or passages of the source.

Columns and labels:
[1] = test system: NCI-H358 subcutaneous xenograft tumors; assay: NCI-H358 mouse xenograft model
Experimental: NCI-H358 cells were injected subcutaneously (5×10^6 cells in 0.1 mL of PBS) into the right flanks of 6-8-week-old female BALB/c nude mice and allowed to grow until the average tumor size reached 150-200 mm^3. The mice were then stratified into treatment groups of 4-8 animals and treatment initiated on Day 0. Test compound or vehicle (1% Tween 80, 2% HPMC, and 97% water) was administered orally, once daily, for 21 days. Tumor size was measured twice weekly in two dimensions using a caliper, and the volume was expressed in mm^3 using the formula: V=(a×b^2/2) where a and b are the long and short diameters of the tumor, respectively. Tumor Growth Inhibition (TGI) was calculated for each group using the formula: TGI %=(1−Ti/Vi)×100, where Ti is the mean tumor volume of the treatment group on the measurement day, and Vi is the mean tumor volume of the control group on the measurement day. Animal body weight was monitored regularly as an indicator of toxicity. […] Data points represent the group mean, and error bars represent the standard error of the mean (SEM).

[2] = target: KRAS G12C protein (Homo sapiens, UniProt P01116, G12C); assay: Nucleotide exchange assay (Method III, KRAS G12C/Raf-RBD TR-FRET); type: biochemical; details: SOS1-mediated exchange of GDP for GTP, 18 hr compound incubation
KRAS G12C protein, sequence (P01116 1-188 isoform P01116-2 G12C): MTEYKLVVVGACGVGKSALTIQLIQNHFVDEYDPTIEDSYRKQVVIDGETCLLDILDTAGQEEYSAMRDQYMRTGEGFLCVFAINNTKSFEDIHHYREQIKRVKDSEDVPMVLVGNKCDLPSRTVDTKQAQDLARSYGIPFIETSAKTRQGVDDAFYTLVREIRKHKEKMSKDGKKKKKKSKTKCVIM
Experimental: Method III. Inhibition of SOS1-mediated exchange of GDP for GTP on the KRAS G12C protein was measured in a biochemical assay that monitors association of KRAS G12C protein with the Ras-binding domain of Raf (Raf-RBD), where the association is coupled to exchange of GDP to GTP on the KRAS G12C protein. The assay was performed at WuXi AppTec (Shanghai, China). Compounds were serially diluted in 3-fold dilutions to 11 concentrations and spotted into the wells of an assay plate in a total volume of 150 nL DMSO per well. A 2× enzyme mix was prepared by diluting GDP-bound, His-tagged KRAS G12C to 25 nM in assay buffer. 10 μL/well of 2× enzyme mix was added to all wells, and the plate was sealed and incubated overnight (18 hr) at 23° C. 4×SOS1/GDP and 4×SOS1/GTP were prepared in assay buffer. 5 μL/well of 4×SOS1/GDP mix was added to negative control wells, 5 μL/well of 4×SOS1/GTP mix was added to the remaining wells, and the plate was further incubated at 23° C. for 1 hr. Finally, FLAG-tagged Raf-RBD is added to the reaction mixture along with a pair of FRET donor- and acceptor-conjugated antibodies specific for the FLAG-tagged Raf-RBD and His-tagged KRAS G12C proteins. A 4×Raf-RBD/Tb-anti-FLAG/D2-anti-His mix was prepared in assay buffer, and 5 μL/well of the mix was added to all wells, followed by incubation at room temperature for 2 hr. The TR-FRET signals, which increase with association of KRAS G12C and Raf-RBD, were measured on a Perkin Elmer Envision 2104 plate reader, and data were analyzed by non-linear regression to obtain IC50 values for inhibition by compounds. Table 2 includes results of the assay of Method III. ‘+++’ indicates IC50 values≤300 nM, ‘++’ indicates IC50 values between 300 nM-3 μM, and ‘+’ indicates IC50 values≥3 μM.

[3] = test system: NCI-H358 cells; assay: 3D cell proliferation assay (Cell Titer-Glo 3D, 7 days); type: cell-based; details: NCI-H358 3D, ultra-low attachment plate
Experimental: NCI-H358 cells (ATCC® CRL-5807™) were plated in a 384-well Black/Clear Round Bottom Ultra-Low Attachment Microplate (Corning) in medium (RPMI-1640+10% FBS) at a density of 1000 cells in 50 μL per well, then incubated overnight at 37° C. and 5% CO2. Cells were treated with test compounds at 9 concentrations within a specified concentration range (e.g., 0.5 nM-10 μM) for generation of dose response curves. Test compounds were prepared by 1:3 serial dilution in DMSO from a specified starting concentration (e.g., 20 μM, 2 μM or 0.2 μM) and then added to wells of the assay plate in a total volume of 150 nL DMSO. The cells were further incubated at 37° C. and 5% CO2 for 7 days. Cell viability was assessed by adding 40 μL of Cell Titer-Glo® 3D reagent (Cat. No.: G9683, Promega) to each well and reading luminescence after mixing and incubation of the samples. The IC50 value of each test compound was calculated with XLFit curve fitting software.

[4] = test system: MIA PaCa-2; assay: Cell proliferation assay panel (Cell Titer-Glo, 72 hr); type: cell-based
Experimental: Potency of compounds was determined in cell proliferation assays in a panel of cancer cell lines. Cells were seeded in 384-well plates (Corning, Cat. #3765) at specified densities in 40 μL of culture medium and incubated overnight at 37° C. in a 5% CO2 incubator (culture conditions). With a robotic dispenser, serially diluted test compounds were added in a volume of 20 nL DMSO to wells in the culture plate to achieve the final desired concentrations of test compounds, and the cells were further incubated in culture conditions for 72 hr. The assay was terminated by addition of 25 μL of Cell Titer-Glo reagent (Promega, Madison, Wis.) to each well. Contents were mixed, the plate was incubated for 10 min at room temperature and luminescence was measured. The IC50 value of each test compound was calculated with XLFit curve fitting software. Results are shown in Table 4. ‘+++’ indicates IC50 values≤300 nM, ‘++’ indicates IC50 values between 300 nM-3 μM, and ‘+’ indicates IC50 values≥3 μM.

Compound | IC50 [2] [nM] | IC50 ([3]; Homo sapiens, NCI-H358, 168 h) [nM] | further results
C=CC(=O)N1CCN(c2nc(OC[C@@H]3CCCN3C)nc3c2COC(c2cccc4cccc(Cl)c24)C3)C[C@@H]1CC#N (single isomer, unassigned) [38 (Isomer B)] | ≤ 300 | ≤ 100 | TGI ([1]; 10 mg/kg orally once daily, Day 20 after treatment start): 22.4%; TGI ([1]; 30 mg/kg orally once daily, Day 20 after treatment start (day not restated for comparators)): 26.7%; TGI ([1]; 100 mg/kg orally once daily, Day 20 after treatment start): 50.4%
C=CC(=O)N1CCN(c2nc(OC[C@@H]3CCCN3C)nc3c2COC(c2cccc4cccc(Cl)c24)C3)CC1 (single isomer, unassigned) [40 (Isomer A)] | ≤ 300 | – | IC50 [3]: 100 to 2000 nM
C=CC(=O)N1CCN(c2nc(OC[C@@H]3CCCN3C)nc3c2COC(c2cccc4cccc(Cl)c24)C3)CC1 (single isomer, unassigned) [40 (Isomer B)] | ≥ 3000 | – | IC50 [3]: ≥ 2000 nM
C=C(F)C(=O)N1CCN(c2nc(OC[C@@H]3CCCN3C)nc3c2CO[C@H](c2cccc4cccc(Cl)c24)C3)C[C@@H]1CC#N (single isomer, unassigned) [43 (Isomer A)] | ≥ 3000 | ≥ 2000 | –
C=C(F)C(=O)N1CCN(c2nc(OC[C@@H]3CC(F)(F)CN3C)nc3c2COC(c2cccc4cccc(Cl)c24)C3)C[C@@H]1CC#N (single isomer, unassigned) [228 (Isomer A)] | ≤ 300 | – | IC50 ([4]; Homo sapiens, MIA PaCa-2, 72 h): 300 to 3000 nM; IC50 [3]: ≤ 100 nM
C=C(F)C(=O)N1CCN(c2nc(OC[C@@H]3CC(F)(F)CN3C)nc3c2COC(c2cccc4cccc(Cl)c24)C3)C[C@@H]1CC#N (single isomer, unassigned) [228 (Isomer B)] | ≥ 3000 | – | IC50 [3]: ≥ 2000 nM
C=C(Cl)C(=O)N1CCN(c2nc(OC[C@@H]3CCCN3C)nc3c2COC(c2cccc4cccc(Cl)c24)C3)C[C@@H]1CC#N (single isomer, unassigned) [239 (Isomer B)] | ≤ 300 | ≤ 100 | IC50 ([4]; Homo sapiens, MIA PaCa-2, 72 h): ≤ 300 nM
C=C(F)C(=O)N1CCN(c2nc(OC[C@@H]3CCCN3C)nc3c2COC(c2cccc4cccc(Cl)c24)C3(C)C)C[C@@H]1CC#N (single isomer, unassigned) [258 (Isomer B)] | ≤ 300 | ≤ 100 | IC50 ([4]; Homo sapiens, MIA PaCa-2, 72 h): ≤ 300 nM
C=C(F)C(=O)N1CCN(c2nc(OC[C@@H]3CCCN3C)nc3c2COC(c2nc(N)cc4ccccc24)C3)C[C@@H]1CC#N (single isomer, unassigned) [259 (Isomer A)] | 300 to 3000 | – | IC50 [4]: ≥ 3000 nM
C=C(F)C(=O)N1CCN(c2nc(OC[C@@H]3CCCN3C)nc3c2COC(c2nc(N)cc4ccccc24)C3)C[C@@H]1CC#N (single isomer, unassigned) [259 (Isomer B)] | ≤ 300 | – | IC50 [4]: ≤ 300 nM
C=C(F)C(=O)N1CCN(c2nc(OC[C@@H]3CCCN3C)nc3c2COC(c2cccc4sc(N)nc24)C3)C[C@@H]1CC#N (single isomer, unassigned) [260 (Isomer A)] | ≤ 300 | 100 to 2000 | IC50 ([4]; Homo sapiens, MIA PaCa-2, 72 h): 300 to 3000 nM
C=C(F)C(=O)N1CCN(c2nc(OC[C@@H]3CCCN3C)nc3c2COC(c2cccc4sc(N)nc24)C3)C[C@@H]1CC#N (single isomer, unassigned) [260 (Isomer B)] | ≤ 300 | – | –
C=C(F)C(=O)N1CCN(c2nc(OCC34CCCN3CCC4)nc3c2COC(c2cccc4cccc(Cl)c24)C3)C[C@@H]1CC#N (single isomer, unassigned) [266 (Isomer A)] | 300 to 3000 | – | IC50 ([4]; Homo sapiens, MIA PaCa-2, 72 h): 300 to 3000 nM
C=C(F)C(=O)N1CCN(c2nc(OCC34CCCN3CCC4)nc3c2COC(c2cccc4cccc(Cl)c24)C3)C[C@@H]1CC#N (single isomer, unassigned) [266 (Isomer B)] | ≤ 300 | ≤ 100 | IC50 [4]: ≤ 300 nM
C=C(F)C(=O)N1CCN(c2nc(OC[C@H]3CCCN3C)nc3c2COC(c2cccc4cccc(Cl)c24)C3)C[C@@H]1CC#N (single isomer, unassigned) [267 (Isomer A)] | 300 to 3000 | – | IC50 [4]: ≥ 3000 nM
C=C(F)C(=O)N1CCN(c2nc(OC[C@H]3CCCN3C)nc3c2COC(c2cccc4cccc(Cl)c24)C3)C[C@@H]1CC#N (single isomer, unassigned) [267 (Isomer B)] | ≤ 300 | – | IC50 [4]: ≤ 300 nM
C=C(F)C(=O)N1CCN(c2nc(OC3CN(C)CC3C)nc3c2COC(c2cccc4cccc(Cl)c24)C3)C[C@@H]1CC#N (single isomer, unassigned) [272 (Isomer A)] | ≥ 3000 | – | –
C=C(F)C(=O)N1CCN(c2nc(OC3CN(C)CC3C)nc3c2COC(c2cccc4cccc(Cl)c24)C3)C[C@@H]1CC#N (single isomer, unassigned) [272 (Isomer B)] | ≥ 3000 | – | –
C=C(F)C(=O)N1CCN(c2nc(OC3CN(C)CC3C)nc3c2COC(c2cccc4cccc(Cl)c24)C3)C[C@@H]1CC#N (single isomer, unassigned) [272 (Isomer C)] | ≤ 300 | – | –
C=C(F)C(=O)N1CCN(c2nc(OC3CN(C)CC3C)nc3c2COC(c2cccc4cccc(Cl)c24)C3)C[C@@H]1CC#N (single isomer, unassigned) [272 (Isomer D)] | 300 to 3000 | – | –
C=C(F)C(=O)N1CCN(c2nc(OC[C@@H]3CCCN3C)nc3c2CC=C(c2cccc4cccc(Cl)c24)O3)C[C@H]1C [Compound 154, 1-((R)-4-(7-(8-chloronaphthalen-1-yl)-2-(((S)-1-methylpyrrolidin-2-yl)methoxy)-5H-pyrano[2,3-d]pyrimidin-4-yl)-2-methylpiperazin-1-yl)-2-fluoroprop-2-en-1-one] | ≥ 3000 | – | –
C=C(F)C(=O)N1CCN(c2nc(OC[C@@H]3CCCN3C)nc3c2CC=C(c2cccc4cccc(Cl)c24)O3)CC1 [Compound 174, (S)-1-(4-(7-(8-chloronaphthalen-1-yl)-2-((1-methylpyrrolidin-2-yl)methoxy)-5H-pyrano[2,3-d]pyrimidin-4-yl)piperazin-1-yl)-2-fluoroprop-2-en-1-one] | ≥ 3000 | – | –
C=C(F)C(=O)N1CCN(c2nc(OC[C@@H]3CCCN3C)nc3c2CC=C(c2cccc4cccc(Cl)c24)O3)C[C@@H]1CC#N [Compound 178, 2-((S)-4-(7-(8-chloronaphthalen-1-yl)-2-(((S)-1-methylpyrrolidin-2-yl)methoxy)-5H-pyrano[2,3-d]pyrimidin-4-yl)-1-(2-fluoroacryloyl)piperazin-2-yl)acetonitrile] | ≤ 300 | 100 to 2000 | –
C=CC(=O)N1CCN(c2nc(OC[C@@H]3CCCN3C)nc3c2CC=C(c2cccc4cccc(Cl)c24)O3)C[C@@H]1CC#N [Compound 181, 2-((S)-1-acryloyl-4-(7-(8-chloronaphthalen-1-yl)-2-(((S)-1-methylpyrrolidin-2-yl)methoxy)-5H-pyrano[2,3-d]pyrimidin-4-yl)piperazin-2-yl)acetonitrile] | ≤ 300 | ≤ 100 | –
